Source: paper PMC8537445, “D-Peptide-Based Probe for CXCR4-Targeted Molecular Imaging and Radionuclide Therapy” (Pharmaceutics, 2021)
Read-outs that look alike come from different tables or passages of the source. Positions of bridges follow the written chain, without caps; N, C: chain ends. Non-standard residues stand in square brackets, D forms with d. Residues, ends and D or L forms follow the SMILES beside them. Chains are numbered I, II in the order given. *: point of attachment. NOTA = O=C(O)CN1CCN(CC(=O)O)CCN(CC(=O)*)CC1

Experiment: Ex vivo biodistribution in U87.hCXCR4 tumor-bearing mice
Set-up: species or system mouse
Conditions: female, SCID (CB17.Cg-Prkdc<scid>Lyst<bg-J>/Crl), mouse, iv, total radioactivity, 75 min p.i., mean ± SD; for tissue to tissue ratio at 1.25 h: SUV ratio

In the case of CC(C)C[C@@H](N)C(=O)NCC(=O)N[C@H](C)C(=O)N[C@H](CO)C(=O)N[C@H](Cc1c[nH]c2ccccc12)C(=O)N[C@H](Cc1c[nH]cn1)C(=O)N[C@H](CCCNC(=N)N)C(=O)N1CCC[C@@H]1C(=O)N[C@H](CC(=O)O)C(=O)N[C@H](CCCCNC(=O)CN1CCN(CC(=O)O)CCN(CC(=O)O)CC1)C(=O)NCCCC[C@@H](NC(=O)[C@H]1CCCN1C(=O)[C@@H](CC(C)C)NC(=O)[C@H]1CCCN1C(=O)[C@@H](CCCNC(=N)N)NC(=O)[C@@H](CCCCN)NC(=O)[C@@H](CCC(N)=O)NC(=O)[C@@H](Cc1ccc(O)cc1)NC(=O)CNC(=O)[C@@H](CC(C)C)NC(=O)[C@@H](CS)NC(=O)[C@@H](CS)NC(=O)[C@@H](CCCCN)NC(=O)[C@@H](CC(=O)O)NC(=O)[C@H]1CCCN1C(=O)[C@@H](CCCNC(=N)N)NC(=O)[C@@H](Cc1c[nH]cn1)NC(=O)[C@@H](Cc1c[nH]c2ccccc12)NC(=O)[C@@H](CO)NC(=O)[C@@H](C)NC(=O)CNC(=O)[C@H](N)CC(C)C)C(=O)O [[^18F]AlF-NOTA-DV1-k-(DV3)] (I: H-[dL]G[dA][dS][dW][dH][dR][dP][dD][dK][dC][dC][dL]G[dY][dQ][dK][dR][dP][dL][dP][dK]-OH / II: H-[dL]G[dA][dS][dW][dH][dR][dP][dD][dK](NOTA); amide I:22-II:C), the SUV at 1.25 h (kidneys, co-injected AMD3100 5 mg/kg (157 nmol), n = 4, read-out: kidneys uptake) is reported as 47.5 ± 3.1 SUV, the SUV at 1.25 h (kidneys, co-injected DV1-k-(DV3) 7 nmol, n = 3, read-out: kidneys uptake) is reported as 39.2 ± 7.6 SUV and the SUV at 1.25 h (kidneys, co-injected DV1-k-(DV3) 14 nmol, n = 4, read-out: kidneys uptake) is reported as 33.6 ± 12.4 SUV. For the same molecule, the SUV at 1.25 h (kidneys, co-injected DV1-k-(DV3) 24 nmol, n = 4, read-out: kidneys uptake) was 36.1 ± 5.9 SUV, the SUV at 1.25 h (kidneys, tracer alone (0 nmol), n = 4, read-out: kidneys uptake) was 26.5 ± 6 SUV and the SUV at 1.25 h (liver, co-injected AMD3100 5 mg/kg (157 nmol), n = 4, read-out: liver uptake) was 0.9 ± 0.3 SUV. For the same molecule, the SUV at 1.25 h (liver, tracer alone (0 nmol), n = 4, read-out: liver uptake) was 8.2 ± 1 SUV, the SUV at 1.25 h (liver, with unlabelled DV1-k-(DV3) 7 nmol, co-injected, co-injected DV1-k-(DV3) 7 nmol, n = 3, read-out: liver uptake) was 1.2 ± 0.1 SUV and the SUV at 1.25 h (liver, with unlabelled DV1-k-(DV3) 14 nmol, co-injected, co-injected DV1-k-(DV3) 14 nmol, n = 4, read-out: liver uptake) was 1.2 ± 0.4 SUV. For the same molecule, the SUV at 1.25 h (liver, with unlabelled DV1-k-(DV3) 24 nmol, co-injected, co-injected DV1-k-(DV3) 24 nmol, n = 4, read-out: liver uptake) was 0.7 ± 0.1 SUV, the SUV at 1.25 h (lungs, co-injected AMD3100 5 mg/kg (157 nmol), n = 4, read-out: lungs uptake) was 0.5 ± 0.1 SUV and the SUV at 1.25 h (lungs, co-injected DV1-k-(DV3) 7 nmol, n = 3, read-out: lungs uptake) was 0.7 ± 0.2 SUV. It also gave an SUV at 1.25 h (lungs, co-injected DV1-k-(DV3) 14 nmol, n = 4, read-out: lungs uptake) of 0.9 ± 0.3 SUV, an SUV at 1.25 h (lungs, co-injected DV1-k-(DV3) 24 nmol, n = 4, read-out: lungs uptake) of 0.6 ± 0.2 SUV and an SUV at 1.25 h (lungs, tracer alone (0 nmol), n = 4, read-out: lungs uptake) of 0.6 ± 0.2 SUV. It also gave an SUV at 1.25 h (muscle, co-injected DV1-k-(DV3) 7 nmol, n = 3, read-out: muscle uptake) of 0.2 ± 0.1 SUV, an SUV at 1.25 h (muscle, co-injected DV1-k-(DV3) 14 nmol, n = 4, read-out: muscle uptake) of 0.2 ± 0.1 SUV and an SUV at 1.25 h (muscle, co-injected DV1-k-(DV3) 24 nmol, n = 4, read-out: muscle uptake) of 0.2 ± 0.1 SUV. For the same molecule, the SUV at 1.25 h (muscle, tracer alone (0 nmol), n = 4, read-out: muscle uptake) was 0.05 ± 0.02 SUV, the SUV at 1.25 h (muscle, with AMD3100 5 mg/kg (157 nmol), co-injected, co-injected AMD3100 5 mg/kg (157 nmol), n = 4, read-out: muscle uptake) was 0.1 ± 0.1 SUV and the SUV at 1.25 h (pancreas, co-injected AMD3100 5 mg/kg (157 nmol), n = 4, read-out: pancreas uptake) was 0.1 ± 0.1 SUV. It also gave an SUV at 1.25 h (pancreas, co-injected DV1-k-(DV3) 7 nmol, n = 3, read-out: pancreas uptake) of 0.1 ± 0.04 SUV, an SUV at 1.25 h (pancreas, co-injected DV1-k-(DV3) 14 nmol, n = 4, read-out: pancreas uptake) of 0.2 ± 0.1 SUV and an SUV at 1.25 h (pancreas, co-injected DV1-k-(DV3) 24 nmol, n = 4, read-out: pancreas uptake) of 0.1 ± 0.03 SUV. The SUV at 1.25 h (pancreas, tracer alone (0 nmol), n = 4, read-out: pancreas uptake) was 0.06 ± 0.02 SUV, the SUV at 1.25 h (spleen, co-injected AMD3100 5 mg/kg (157 nmol), n = 4, read-out: spleen uptake) was 0.5 ± 0.1 SUV and the SUV at 1.25 h (spleen, co-injected DV1-k-(DV3) 7 nmol, n = 3, read-out: spleen uptake) was 0.5 ± 0.1 SUV. It also gave an SUV at 1.25 h (spleen, co-injected DV1-k-(DV3) 14 nmol, n = 4, read-out: spleen uptake) of 0.6 ± 0.2 SUV, an SUV at 1.25 h (spleen, co-injected DV1-k-(DV3) 24 nmol, n = 4, read-out: spleen uptake) of 0.4 ± 0.1 SUV and an SUV at 1.25 h (spleen, tracer alone (0 nmol), n = 4, read-out: spleen uptake) of 2.5 ± 1 SUV. The tissue to tissue ratio at 1.25 h (tumor / blood, tracer alone (0 nmol), n = 4, read-out: tumor-to-blood ratio (t/blood)) was 4.6 ± 0.9, the tissue to tissue ratio at 1.25 h (tumor / liver, tracer alone (0 nmol), n = 4, read-out: tumor-to-liver ratio (t/liver)) was 0.1 ± 0.02 and the tissue to tissue ratio at 1.25 h (tumor / liver, with unlabelled DV1-k-(DV3) 24 nmol, co-injected, co-injected DV1-k-(DV3) 24 nmol, n = 4, read-out: tumor-to-liver ratio (t/liver)) was 0.9 ± 0.2. It also gave a tissue to tissue ratio at 1.25 h (tumor / muscle, tracer alone (0 nmol), n = 4, read-out: tumor-to-muscle ratio (t/muscle)) of 12.4 ± 2.9, a tissue to tissue ratio at 1.25 h (tumor / muscle, with AMD3100 5 mg/kg (157 nmol), co-injected, co-injected AMD3100 5 mg/kg (157 nmol), n = 4, read-out: tumor-to-muscle ratio (t/muscle)) of 4.2 ± 1.1 and a tissue to tissue ratio at 1.25 h (tumor / muscle, with unlabelled DV1-k-(DV3) 7 nmol, co-injected, co-injected DV1-k-(DV3) 7 nmol, n = 3, read-out: tumor-to-muscle ratio (t/muscle)) of 5.4 ± 2.2. For the same molecule, the tissue to tissue ratio at 1.25 h (tumor / muscle, with unlabelled DV1-k-(DV3) 14 nmol, co-injected, co-injected DV1-k-(DV3) 14 nmol, n = 4, read-out: tumor-to-muscle ratio (t/muscle)) was 4.8 ± 2.1, the tissue to tissue ratio at 1.25 h (tumor / muscle, with unlabelled DV1-k-(DV3) 24 nmol, co-injected, co-injected DV1-k-(DV3) 24 nmol, n = 4, read-out: tumor-to-muscle ratio (t/muscle)) was 3 ± 0.4 and the SUV at 1.25 h (tumor, tracer alone (0 nmol), n = 4, read-out: tumor uptake) was 0.6 ± 0.2 SUV. It also gave an SUV at 1.25 h (tumor, with AMD3100 5 mg/kg (157 nmol), co-injected, co-injected AMD3100 5 mg/kg (157 nmol), n = 4, read-out: tumor uptake) of 0.4 ± 0.2 SUV, an SUV at 1.25 h (tumor, with unlabelled DV1-k-(DV3) 7 nmol, co-injected, co-injected DV1-k-(DV3) 7 nmol, n = 3, read-out: tumor uptake) of 0.7 ± 0.1 SUV and an SUV at 1.25 h (tumor, with unlabelled DV1-k-(DV3) 14 nmol, co-injected, co-injected DV1-k-(DV3) 14 nmol, n = 4, read-out: tumor uptake) of 0.9 ± 0.3 SUV. The SUV at 1.25 h (tumor, with unlabelled DV1-k-(DV3) 24 nmol, co-injected, co-injected DV1-k-(DV3) 24 nmol, n = 4, read-out: tumor uptake) was 0.6 ± 0.2 SUV, the tissue to tissue ratio at 1.25 h (tumor/blood, co-injected DV1-k-(DV3) 7 nmol, n = 3, read-out: tumor-to-blood ratio (t/blood)) was 2.2 ± 0.9 and the tissue to tissue ratio at 1.25 h (tumor/blood, co-injected DV1-k-(DV3) 14 nmol, n = 4, read-out: tumor-to-blood ratio (t/blood)) was 2 ± 0.9. It also gave a tissue to tissue ratio at 1.25 h (tumor/blood, co-injected DV1-k-(DV3) 24 nmol, n = 4, read-out: tumor-to-blood ratio (t/blood)) of 1.8 ± 0.3, a tissue to tissue ratio at 1.25 h (tumor/bone, co-injected AMD3100 5 mg/kg (157 nmol), n = 4, read-out: tumor-to-bone ratio (t/bone)) of 2.6 ± 0.7 and a tissue to tissue ratio at 1.25 h (tumor/bone, co-injected DV1-k-(DV3) 7 nmol, n = 3, read-out: tumor-to-bone ratio (t/bone)) of 2.9 ± 0.3. It also gave a tissue to tissue ratio at 1.25 h (tumor/bone, co-injected DV1-k-(DV3) 14 nmol, n = 4, read-out: tumor-to-bone ratio (t/bone)) of 3.2 ± 0.4, a tissue to tissue ratio at 1.25 h (tumor/bone, co-injected DV1-k-(DV3) 24 nmol, n = 4, read-out: tumor-to-bone ratio (t/bone)) of 3.3 ± 0.5 and a tissue to tissue ratio at 1.25 h (tumor/bone, tracer alone (0 nmol), n = 4, read-out: tumor-to-bone ratio (t/bone)) of 1.4 ± 0.5. For the same molecule, the tissue to tissue ratio at 1.25 h (tumor/liver, co-injected AMD3100 5 mg/kg (157 nmol), n = 4, read-out: tumor-to-liver ratio (t/liver)) was 0.5 ± 0.2, the tissue to tissue ratio at 1.25 h (tumor/liver, co-injected DV1-k-(DV3) 7 nmol, n = 3, read-out: tumor-to-liver ratio (t/liver)) was 0.6 ± 0.1 and the tissue to tissue ratio at 1.25 h (tumor/liver, co-injected DV1-k-(DV3) 14 nmol, n = 4, read-out: tumor-to-liver ratio (t/liver)) was 0.8 ± 0.2. For the same molecule, the tissue to tissue ratio at 1.25 h (tumor/spleen, co-injected AMD3100 5 mg/kg (157 nmol), n = 4, read-out: tumor-to-spleen ratio (t/spleen)) was 0.7 ± 0.2, the tissue to tissue ratio at 1.25 h (tumor/spleen, co-injected DV1-k-(DV3) 7 nmol, n = 3, read-out: tumor-to-spleen ratio (t/spleen)) was 1.4 ± 0.1 and the tissue to tissue ratio at 1.25 h (tumor/spleen, co-injected DV1-k-(DV3) 14 nmol, n = 4, read-out: tumor-to-spleen ratio (t/spleen)) was 1.4 ± 0.1. The tissue to tissue ratio at 1.25 h (tumor/spleen, co-injected DV1-k-(DV3) 24 nmol, n = 4, read-out: tumor-to-spleen ratio (t/spleen)) was 1.6 ± 0.3 and the tissue to tissue ratio at 1.25 h (tumor/spleen, tracer alone (0 nmol), n = 4, read-out: tumor-to-spleen ratio (t/spleen)) was 0.3 ± 0.1.
